MIC data for two molecules are collected here from patent publication US20170027917A1, “PHARMACEUTICAL COMPOSITIONS COMPRISING ANTIBACTERIAL AGENTS” (priority 2014, published 2017).

What all share (test): MIC determination in Muller Hinton Agar (CLSI agar dilution)
Common to all, as to assay type: cell-based
A general note: Agar dilution tests growth on a series of plates holding different concentrations.

The test system of one assay is P. aeruginosa 1405. As to conditions: Pseudomonas aeruginosa; P. aeruginosa 1405, Derepressed AmpC; agent alone. The procedure: (§1) The antibacterial activity of combinations according to the invention against resistant bacterial strains was investigated. Minimum Inhibitory Concentration (MIC) determination for the combinations according to invention was carried out in Muller Hinton Agar (MHA) (BD, USA) according to Clinical and Laboratory Standards Institute (CLSI) recommendations, (Clinical and Laboratory Standards Institute (CLSI), Performance Standards for Antimicrobial Susceptibility Testing, 20th Informational Supplement, M 100-S20, Volume 30, No. 1, 2010). In short, the test strains were adjusted to deliver about 10^4 CFU per spot with a multipoint inoculator (Applied Quality Services, UK). The plates were pored with MHA containing doubling concentration range of the test combinations according to invention. The plates were inoculated and were incubated at 35° C. for 18 hours.

The test system of a further assay is E. coli NCTC 13352. To be noted: Escherichia coli, NCTC13352. The procedure: as §1
Assay [1] relates to K. pneumoniae ATCC 700603. To be noted: Klebsiella pneumoniae, ATCC700603. As to the method:
as §1

The next assay deals with E. coli S206. To be noted: Escherichia coli. As to the method:
as §1

In a further assay the test system is Citrobacter sp S123A. The procedure: as §1
Another assay relates to K. pneumoniae J102. As to conditions: Klebsiella pneumoniae. The procedure: as §1
The subject of another assay is E. coli M50. As to conditions: Escherichia coli. As to the method:
as §1

For another assay, the system named is P. aeruginosa 2779. To be noted: Pseudomonas aeruginosa. As to the method:
as §1

A further assay deals with K. pneumoniae H521. As to conditions: Klebsiella pneumoniae. The procedure: as §1
In another assay the test system is K. pneumoniae J125. As to conditions: Klebsiella pneumoniae. As to the method: as §1
Another assay has as its system E. cloacae J137. To be noted: Enterobacter cloacae. The procedure:
as §1

Each structure is given as a SMILES string. Where two headings read alike, the source gives them in different places. Bounds are passed on as bounds.

With `C[C@@H](O)[C@H]1C(=O)N2C(C(=O)O)=C(SCCN=CN)C[C@H]12` [Imipenem], the MIC (as a rule, the least concentration at which growth counts as inhibited) in the assay with P. aeruginosa 1405 was found to be 16 µg/mL; in the assay on E. coli NCTC 13352 (E. coli NCTC 13352, TEM-10, agent alone, read-out: MIC) it was 0.25 µg/mL; in [1] (K. pneumoniae ATCC 700603, SHV-18, agent alone, read-out: MIC), 0.5 µg/mL; with E. coli S206 (E. coli S206, Class C, agent alone, read-out: MIC), 0.25 µg/mL; with Citrobacter sp S123A, 4 µg/mL; in the assay with K. pneumoniae J102 (K. pneumoniae J102, OMP, SHV, TEM, agent alone, read-out: MIC), 4 µg/mL. Further, the minimal inhibitory concentration (MIC) in the assay on E. coli M50 (E. coli M50, CMY-2, agent alone, read-out: MIC) was 0.5 µg/mL; in the assay on P. aeruginosa 2779 (P. aeruginosa 2779, AmpC, agent alone, read-out: MIC), 2 µg/mL; in the assay on K. pneumoniae H521 (K. pneumoniae H521, KPC, SHV, TEM, agent alone, read-out: MIC) it was 32 µg/mL; in the assay on K. pneumoniae J125 (K. pneumoniae J125, KPC3, SHV, TEM, agent alone, read-out: MIC) it was 8 µg/mL; in the assay on E. cloacae J137 (E. cloacae J137, P99, agent alone, read-out: MIC), 1 µg/mL.
For `Cn1c(N)c(NC(=O)NCCN)c[n+]1CC1=C(C(=O)O)N2C(=O)[C@@H](NC(=O)/C(=N\OC(C)(C)C(=O)[O-])c3nsc(N)n3)[C@H]2SC1` [Ceftolozane], the minimum inhibitory concentration (MIC) in the assay on P. aeruginosa 1405 is 8 µg/mL; in the assay on E. coli NCTC 13352 it was greater than 32 µg/mL; in assay [1], 4 µg/mL; in the assay with E. coli S206 (S206) it was greater than 32 µg/mL; in the assay on Citrobacter sp S123A, greater than 32 µg/mL; with K. pneumoniae J102 (J102) it was greater than 32 µg/mL. The minimum inhibitory concentration (MIC) was greater than 32 µg/mL in the assay on E. coli M50 (M50); 4 µg/mL in the assay with P. aeruginosa 2779 (2779); greater than 32 µg/mL in the assay on K. pneumoniae H521 (H521); 32 µg/mL with K. pneumoniae J125 (J125); greater than 32 µg/mL with E. cloacae J137 (J137).
